{"source": "patent US8871681B2", "about": "“Herbicidal compositions comprising 4-amino-3-chloro-5-fluoro-6-(4-chloro-2-fluoro-3-methoxyphenyl) pyridine-2-carboxylic acid or a derivative thereof and certain sulfonylureas” (Dow AgroSciences LLC, priority 2012, dated 2014)", "experiment_in_all_cases": "Postemergence foliar-applied weed control, direct seeded rice, greenhouse (Example I)", "key": {"[1]": {"system": "LEFCH (Leptochloa chinensis, Chinese sprangletop)", "type": "in vivo, Leptochloa chinensis (L.) Nees", "details": "for pest or weed control at 4.38 g/ha: 4.38 gae/ha; for pest or weed control at 8.75 g/ha: 8.75 gae/ha", "in_short": "(§1)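 Greenhouse-grown plants (14 h photoperiod, 29/26 °C day/night) at first to fourth true leaf stage sprayed overhead at 187 L/ha with Compound A (acid equivalent basis) alone or mixed with sulfonylurea ALS inhibitors (active ingredient basis). Final spray contained 1.25% v/v crop oil concentrate; controls received solvent blank.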"}, "[2]": {"system": "CYPES (Cyperus esculentus, yellow nutsedge)", "type": "in vivo, Cyperus esculentus L.", "details": "20 DAA", "excerpt": "Seeds or nutlets of the desired test plant species were planted in a soil matrix prepared by mixing a loam or sandy loam soil (e.g., 28.6 percent silt, 18.8 percent clay, and 52.6 percent sand, with a pH of about 5.8 and an organic matter content of about 1.8 percent) and calcareous grit in an 80 to 20 ratio. The soil matrix was contained in plastic pots with a volume of 1 quart and a surface area of 83.6 square centimeters (cm^2). When required to ensure good germination and healthy plants, a fungicide treatment and/or other chemical or physical treatment was applied. The plants were grown for 8-22 days in a greenhouse with an approximate 14 h photoperiod which was maintained at about 29° C. during the day and 26° C. during the night. Nutrients (Peters Excel® 15-5-15 5-Ca 2-Mg and iron chelate) were applied in the irrigation solution as needed and water was added on a regular basis. Supplemental lighting was provided with overhead metal halide 1000-Watt lamps as necessary. The plants were employed for testing when they reached the first through fourth true leaf stage.\nTreatments consisted of the acid or esters of 4-amino-3-chloro-5-fluoro-6-(4-chloro-2-fluoro-3-methoxy-phenyl)pyridine-2-carboxylic acid (Compound A), each formulated as an SC, and various herbicidal components alone and in combination. Forms of compound A were applied on an acid equivalent basis.\nOther herbicidal components were applied on an active ingredient basis and included acetolactate synthase (ALS)-inhibiting herbicides (sulfonylurea chemical class) azimsulfuron formulated as Gulliver®, bensulfuron-methyl formulated as Londax® 60DF, cyclosulfamuron (technical material), ethoxysulfuron formulated as Sunrice® 15 WDG, flazasulfuron formulated as Katana®, flucetosulfuron formulated as Sukedachi® 1KG G, foramsulfuron formulated as Option®, imazosulfuron formulated as Brazzos® WG, iodosulfuron-methyl-sodium formulated as Hussar®, metsulfuron-methyl formulated as Lorate®, nicosulfuron formulated as Accent®, orthosulfamuron formulated as Strada® WG, primisulfuron-methyl (technical material), propyrisulfuron formulated as Zeta One®, rimsulfuron formulated as Matrix® WG, sulfometuron-methyl formulated as Oust®, and trifloxysulfuron-sodium formulated as Monument® 75WG.\nTreatment requirements were calculated based upon the rates being tested, the concentration of active ingredient or acid equivalent in the formulation, and a 12 mL application volume at a rate of 187 L/ha.\nFor treatments comprised of formulated compounds, measured amounts of compounds were placed individually in 25 mL glass vials and diluted in a volume of 1.25% (v/v) Agri-Dex® crop oil concentrated to obtain 12× stock solutions. […] Application solutions were prepared by adding an appropriate amount of each stock solution (e.g., 1 mL) and diluted to the appropriate final concentrations with the addition of 10 mL of an aqueous mixture of 1.25% (v/v) crop oil concentrate so that the final spray solutions contained 1.25+/−0.05% (v/v) Agrcrop oil concentrate.\nFor treatments comprised of formulated and technical compounds, weighed amounts of the technical materials were placed individually in 25 mL glass vials and dissolved in a volume of 97:3 v/v acetone/DMSO to obtain 12× stock solutions, and measured amounts of the formulated compounds were placed individually in 25 mL glass vials and diluted in a volume of 1.25% (v/v) crop oil concentrate to obtain 12× stock solutions. […] Application solutions were prepared by adding an appropriate amount of each stock solution (e.g., 1 mL) and diluted to the appropriate final concentrations with the addition of an appropriate amount of an aqueous mixture of 1.5% (v/v) crop oil concentrate so that the final spray solutions contained 1.25% (v/v) crop oil concentrate. […]"}, "[3]": {"system": "DIGSA (Digitaria sanguinalis, large crabgrass)", "type": "in vivo, Digitaria sanguinalis (L.) Scop.", "details": "for Visual Weed Control (%) - 21 DAA DIGSA Obs: Table 27, foliar-applied", "in_short": "as §1"}, "[4]": {"details": "Dinebra chinensis, post-emergence, 480 h, 20 DAA, read-out: Visual Weed Control (%) Obs"}}, "note": "Values joined by “and” are separate entries in the source; they are usually repeats but may differ in a detail not shown here. Equal entries are not always repeated. Where two headings read alike, the source gives them in different places.", "data": [{"smiles": "COc1c(Cl)ccc(-c2nc(C(=O)O)c(Cl)c(N)c2F)c1F", "note": "[Compound A Acid, 4-amino-3-chloro-5-fluoro-6-(4-chloro-2-fluoro-3-methoxy-phenyl)pyridine-2-carboxylic acid]", "values": [{"measurement": "pest or weed control at 4.38 g/ha", "setting": "[1]; [4]", "result": 0, "unit": "%"}, {"measurement": "pest or weed control at 5.3 g/ha", "setting": "[1]; Dinebra chinensis, post-emergence, 480 h, 20 DAA, 5.3 gae/ha, read-out: Visual Weed Control (%) Obs", "result": 0, "unit": "%"}, {"measurement": "pest or weed control at 8.75 g/ha", "setting": "[1]; [4]", "result": 0, "unit": "%"}, {"measurement": "pest or weed control at 10.6 g/ha", "setting": "[1]; Dinebra chinensis, post-emergence, 480 h, 20 DAA, 10.6 gae/ha, read-out: Visual Weed Control (%) Obs", "result": 10, "unit": "%"}, {"measurement": "pest or weed control at 17.5 g/ha", "setting": "[1]; Dinebra chinensis, post-emergence, 480 h, 20 DAA, 17.5 gae/ha, read-out: Visual Weed Control (%) Obs", "result": 10, "unit": "%"}, {"measurement": "pest or weed control at 19.4 g/ha", "setting": "[1]; Dinebra chinensis, post-emergence, 480 h, 20 DAA, 19.4 gae/ha, read-out: Visual Weed Control (%) Obs", "result": 5, "unit": "%"}, {"measurement": "pest or weed control at 21.2 g/ha", "setting": "[1]; Dinebra chinensis, post-emergence, 480 h, 20 DAA, 21.2 gae/ha, read-out: Visual Weed Control (%) Obs", "result": 15, "unit": "%"}, {"measurement": "pest or weed control at 8.75 g/ha", "setting": "[1]; Dinebra chinensis, post-emergence, 504 h, 21 DAA, read-out: Visual Weed Control (%) Obs", "result": 40, "unit": "%"}, {"measurement": "pest or weed control at 17.5 g/ha", "setting": "[1]; Dinebra chinensis, post-emergence, 504 h, 21 DAA, 17.5 gae/ha, read-out: Visual Weed Control (%) Obs", "result": 30, "unit": "%"}, {"measurement": "Visual Weed Control (%) Obs", "setting": "[2]; 4.38 gae/ha", "result": 30, "unit": "%"}, {"measurement": "Visual Weed Control (%) Obs", "setting": "[2]; 5.3 gae/ha", "result": 0, "unit": "%"}, {"measurement": "Visual Weed Control (%) Obs", "setting": "[2]; 8.75 gae/ha", "result": 70, "unit": "%"}, {"measurement": "Visual Weed Control (%) Obs", "setting": "[3]; 20 DAA, 5.3 gae/ha", "result": 10, "unit": "%"}, {"measurement": "Visual Weed Control (%) Obs", "setting": "[3]; 24 DAA, 17.5 gae/ha", "result": 25, "unit": "%"}]}, {"smiles": "COCC(=O)OC(c1ncccc1S(=O)(=O)NC(=O)Nc1nc(OC)cc(OC)n1)C(C)F", "note": "(stereo not shown) [Flucetosulfuron, 1-[3-[[[[(4,6-dimethoxy-2-pyrimidinyl)amino]carbonyl]amino]sulfonyl]-2-pyridinyl]-2-fluoropropyl 2-methoxyacetate]", "values": [{"measurement": "pest or weed control at 0.05 g/ha", "setting": "[1]; Dinebra chinensis, post-emergence, 504 h, 21 DAA, 0.05 gai/ha, read-out: Visual Weed Control (%) Obs", "result": 0, "unit": "%"}, {"measurement": "pest or weed control at 0.1 g/ha", "setting": "[1]; Dinebra chinensis, post-emergence, 504 h, 21 DAA, 0.1 gai/ha, read-out: Visual Weed Control (%) Obs", "result": 0, "unit": "%"}, {"measurement": "pest or weed control at 1.7 g/ha", "setting": "[1]; Dinebra chinensis, post-emergence, 528 h, 22 DAA, 1.7 gai/ha, read-out: Visual Weed Control (%) Obs", "result": 0, "unit": "%"}, {"measurement": "pest or weed control at 5 g/ha", "setting": "[1]; Dinebra chinensis, post-emergence, 528 h, 22 DAA, 5 gai/ha, read-out: Visual Weed Control (%) Obs", "result": 0, "unit": "%"}]}, {"smiles": "COc1c(Cl)ccc(-c2nc(C(=O)OCc3ccccc3)c(Cl)c(N)c2F)c1F", "note": "[Compound A Benzyl Ester]", "values": [{"measurement": "Visual Weed Control Obs", "setting": "[1]; 22 DAA, 8 gae/ha", "result": 0, "unit": "%"}, {"measurement": "pest or weed control at 8.75 g/ha", "setting": "[1]; Dinebra chinensis, post-emergence, 480 h, read-out: Visual Weed Control (%) Obs, 20 DAA", "result": 20, "unit": "%"}, {"measurement": "pest or weed control at 17.5 g/ha", "setting": "[1]; Dinebra chinensis, post-emergence, 480 h, read-out: Visual Weed Control (%) Obs, 20 DAA, 17.5 gae/ha", "result": 40, "unit": "%"}, {"measurement": "pest or weed control at 4.38 g/ha", "setting": "[1]; Dinebra chinensis, post-emergence, 504 h, read-out: Visual Weed Control (%) Obs, 21 DAA", "result": 0, "unit": "%"}, {"measurement": "pest or weed control at 8 g/ha", "setting": "[1]; Dinebra chinensis, post-emergence, 504 h, read-out: Visual Weed Control (%) Obs, 21 DAA, 8 gae/ha", "result": 20, "unit": "%"}, {"measurement": "pest or weed control at 8 g/ha", "setting": "[1]; Dinebra chinensis, post-emergence, 528 h, read-out: Visual Weed Control (%) Obs, 22 DAA, 8 gae/ha", "result": 0, "unit": "%"}, {"measurement": "pest or weed control at 16 g/ha", "setting": "[1]; Dinebra chinensis, post-emergence, 528 h, read-out: Visual Weed Control (%) Obs, 22 DAA, 16 gae/ha", "result": 20, "unit": "%"}, {"measurement": "pest or weed control at 32 g/ha", "setting": "[1]; Dinebra chinensis, post-emergence, 528 h, read-out: Visual Weed Control (%) Obs, 22 DAA, 32 gae/ha", "result": 15, "unit": "%"}, {"measurement": "pest or weed control at 8.75 g/ha", "setting": "[1]; Dinebra chinensis, post-emergence, 576 h, read-out: Visual Weed Control (%) Obs, 24 DAA", "result": 0, "unit": "%"}, {"measurement": "pest or weed control at 17.5 g/ha", "setting": "[1]; Dinebra chinensis, post-emergence, 576 h, read-out: Visual Weed Control (%) Obs, 24 DAA, 17.5 gae/ha", "result": 10, "unit": "%"}, {"measurement": "Visual Weed Control (%) Obs", "setting": "[2]; 4.38 gae/ha", "result": "70% and 85%"}, {"measurement": "Visual Weed Control (%) Obs", "setting": "[2]; 8.75 gae/ha", "result": "80% and 90%"}, {"measurement": "Visual Weed Control (%) Obs", "setting": "[2]; 17.5 gae/ha", "result": 90, "unit": "%"}, {"measurement": "Visual Weed Control (%) Obs", "setting": "[3]; 20 DAA, 4.38 gae/ha", "result": 20, "unit": "%"}, {"measurement": "Visual Weed Control (%) Obs", "setting": "[3]; 20 DAA, 8.75 gae/ha", "result": 15, "unit": "%"}, {"measurement": "Visual Weed Control (%) Obs", "setting": "[3]; 20 DAA, 17.5 gae/ha", "result": 20, "unit": "%"}, {"measurement": "Visual Weed Control (%) Obs", "setting": "[3]; 22 DAA, 8 gae/ha", "result": 20, "unit": "%"}, {"measurement": "Visual Weed Control (%) Obs", "setting": "[3]; 22 DAA, 16 gae/ha", "result": 20, "unit": "%"}, {"measurement": "Visual Weed Control (%) Obs", "setting": "[3]; 22 DAA, 32 gae/ha", "result": 35, "unit": "%"}, {"measurement": "Visual Weed Control (%) - 21 DAA DIGSA Obs", "setting": "[3]; 8 gae/ha alone", "result": 25, "unit": "%"}, {"measurement": "Visual Weed Control (%) - 21 DAA DIGSA Obs", "setting": "[3]; 16 gae/ha alone", "result": 30, "unit": "%"}, {"measurement": "Visual Weed Control (%) - 21 DAA DIGSA Obs", "setting": "[3]; 32 gae/ha alone", "result": 50, "unit": "%"}]}, {"smiles": "COC(=O)c1ccccc1CS(=O)(=O)NC(=O)Nc1nc(OC)cc(OC)n1", "note": "[Bensulfuron-methyl, methyl 2-[[[[[(4,6-dimethoxy-2-pyrimidinyl)amino]carbonyl]amino]sulfonyl]methyl]benzoate, reference compound]", "values": [{"measurement": "pest or weed control at 70 g/ha", "setting": "[1]; Dinebra chinensis, post-emergence, 480 h, 20 DAA, 70 gai/ha, read-out: Visual Weed Control (%) Obs", "result": 5, "unit": "%"}, {"measurement": "pest or weed control at 17.5 g/ha", "setting": "[1]; Dinebra chinensis, post-emergence, 504 h, 21 DAA, 17.5 gai/ha, read-out: Visual Weed Control (%) Obs", "result": 10, "unit": "%"}, {"measurement": "pest or weed control at 35 g/ha", "setting": "[1]; Dinebra chinensis, post-emergence, 504 h, 21 DAA, 35 gai/ha, read-out: Visual Weed Control (%) Obs", "result": 10, "unit": "%"}]}]}
